The text below walks through data of ChEMBL document CHEMBL3627699, “Design, synthesis and biological evaluation of 3-aryl-rhodanine benzoic acids as anti-apoptotic protein Bcl-2 inhibitors” (Bioorg Med Chem Lett, 2015).

Assay [1] concerns the target T1, Apoptosis regulator Bcl-2 (Homo sapiens, UniProt P10415). Briefly: Inhibition of Bcl-2 (unknown origin) by fluorescence polarization assay.
For another assay, the target named is Bcl-2-like protein 1 (Homo sapiens, UniProt Q07817). Briefly: Inhibition of Bcl-xL (unknown origin) by fluorescence polarization assay. For orientation: In fluorescence polarisation assays a small probe gives low polarisation when free and higher when bound to something large.
The target in assay [2] is Induced myeloid leukemia cell differentiation protein Mcl-1 (Homo sapiens, UniProt Q07820). The experiment in a line: Inhibition of Mcl-1 (unknown origin) by fluorescence polarization assay.
The subject of the next assay is MDA-MB-231. Briefly: Antiproliferative activity against human MDA-MB-231 cells by MTT assay. It counts as functional, cell-based. Background: Tetrazolium dyes change colour on reduction, which living cells bring about.
The test system of a further assay is K562. Briefly: Antiproliferative activity against human K562 cells by MTT assay. It counts as functional, cell-based.
For the next assay, the system named is PC-3. The experiment in a line: Antiproliferative activity against human PC3 cells by MTT assay. It is filed as functional, cell-based.
Assay [3] deals with T1, Apoptosis regulator Bcl-2. The experiment in a line: Inhibition of Bcl-2 (unknown origin) at 100 uM by fluorescence polarization assay.

Sequence of Bcl-2-like protein 1 (Q07817 whole entry): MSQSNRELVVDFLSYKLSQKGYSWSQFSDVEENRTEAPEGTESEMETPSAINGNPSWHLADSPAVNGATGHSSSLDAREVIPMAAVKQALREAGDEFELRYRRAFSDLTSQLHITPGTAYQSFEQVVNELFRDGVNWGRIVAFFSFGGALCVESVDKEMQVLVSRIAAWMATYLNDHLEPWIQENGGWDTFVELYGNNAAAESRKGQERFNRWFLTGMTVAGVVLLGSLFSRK
Sequence of Induced myeloid leukemia cell differentiation protein Mcl-1 (Q07820 whole entry): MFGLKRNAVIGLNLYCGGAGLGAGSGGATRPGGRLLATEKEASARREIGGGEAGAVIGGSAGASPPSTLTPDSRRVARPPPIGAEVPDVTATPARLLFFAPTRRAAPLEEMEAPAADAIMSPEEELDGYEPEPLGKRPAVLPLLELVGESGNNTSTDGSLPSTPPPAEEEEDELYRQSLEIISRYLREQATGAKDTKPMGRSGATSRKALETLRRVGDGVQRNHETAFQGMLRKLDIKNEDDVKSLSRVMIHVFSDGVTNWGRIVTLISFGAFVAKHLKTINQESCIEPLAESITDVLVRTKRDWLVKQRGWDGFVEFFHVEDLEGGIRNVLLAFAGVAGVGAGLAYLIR
T1 sequence (P10415 whole entry): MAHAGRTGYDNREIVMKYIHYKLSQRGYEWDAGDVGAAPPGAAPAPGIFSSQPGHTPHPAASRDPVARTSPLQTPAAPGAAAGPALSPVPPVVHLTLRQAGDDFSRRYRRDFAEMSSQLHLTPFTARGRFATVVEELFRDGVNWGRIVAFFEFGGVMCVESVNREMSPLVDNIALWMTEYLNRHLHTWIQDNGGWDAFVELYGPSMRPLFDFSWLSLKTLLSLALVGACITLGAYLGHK

With `O=C(O)c1ccc(COc2ccc(/C=C3\SC(=S)N(c4ccc(Cl)cc4)C3=O)cc2)cc1`, in assay [1], the inhibition constant Ki (usually a measure of affinity in units of concentration, obtained from inhibition or displacement) is over 10 µM.

As to `Cc1ccc(S(=O)(=O)NC(=O)[C@H](Cc2ccccc2)N2C(=O)/C(=C/c3ccc(-c4ccccc4)cc3)SC2=S)cc1`, the Ki in assay [1] amounted to 0.5 µM; on Bcl-2-like protein 1 it was 0.57 µM; in assay [2] it was 0.29 µM. The half-inhibitory concentration (IC50) (in general, the concentration at which inhibition is half-maximal) in the assay with MDA-MB-231 was over 30 µM; in the assay with K562, 32.8 µM; in the assay on PC-3 it was over 30 µM.

Turning to `Cc1cc2c(C(C)C)c(O)c(O)c(C=O)c2c(O)c1-c1c(C)cc2c(C(C)C)c(O)c(O)c(C=O)c2c1O` [GOSSYPOL], the Ki on Bcl-2-like protein 1 was 0.64 µM; in assay [2] it was 0.31 µM. In addition, the concentration for half-maximal inhibition (IC50) with MDA-MB-231 came out at 4.8 µM; in the assay on K562, 7.31 µM; in the assay with PC-3, 5.61 µM.

For the molecule `Cc1cccc(N2C(=O)/C(=C/c3ccc(OCC(=O)Nc4ccc(C(=O)O)cc4)cc3)SC2=S)c1`, the inhibition constant (Ki) in assay [1] is over 10 µM.

For `O=C(O)c1ccc(COc2ccc(/C=C3\SC(=S)N(c4ccc([N+](=O)[O-])cc4)C3=O)cc2)cc1`, in assay [1], the Ki is over 10 µM.

For `COc1ccccc1N1C(=O)/C(=C/c2cccc(OCc3ccc(C(=O)O)cc3)c2)SC1=S`, the Ki was 1.6 µM in assay [1], over 10 µM at Bcl-2-like protein 1 and 3.7 µM in assay [2].

In assay [1], `COc1ccc(N2C(=O)/C(=C/c3ccc(OCc4ccc(C(=O)O)cc4)cc3)SC2=S)cc1` yielded a Ki of over 10 µM.

Molecule `O=C(Nc1ccc(O)c(C(=O)O)c1)c1ccc(/C=C2\SC(=S)N(c3ccccc3)C2=O)cc1` displayed an inhibition constant Ki in assay [1] of over 10 µM.

In the case of `Cc1cccc(C)c1N1C(=O)/C(=C/c2ccc(OCc3ccc(C(=O)O)cc3)cc2)SC1=S`, the Ki in assay [1] came out at 0.9 µM; at Bcl-2-like protein 1, 3.9 µM; in assay [2], 0.72 µM. Further, the IC50 was 25.6 µM with MDA-MB-231, 46.6 µM with K562 and 25.8 µM in the assay on PC-3.

Consider `Cc1ccccc1N1C(=O)/C(=C/c2ccc(OCC(=O)Nc3ccc(C(=O)O)cc3)cc2)SC1=S`, for which the inhibition constant Ki in assay [1] is over 10 µM.

As to `O=C(COc1ccc(/C=C2\SC(=S)N(c3ccc([N+](=O)[O-])cc3)C2=O)cc1)Nc1ccc(C(=O)O)cc1`, in assay [1], the inhibition constant Ki was over 10 µM.

Turning to `Cc1ccc(N2C(=O)/C(=C/c3ccc(OCc4ccc(C(=O)O)cc4)cc3)SC2=S)cc1`, the Ki in assay [1] was over 10 µM.

In turn, `COc1ccccc1N1C(=O)/C(=C/c2ccc(OCC(=O)Nc3ccc(C(=O)O)cc3)cc2)SC1=S` had a Ki in assay [1] of 10 µM.

With `COc1ccccc1N1C(=O)/C(=C/c2ccc(OCc3ccc(C(=O)O)cc3)cc2)SC1=S`, the Ki was 2 µM in assay [1], over 10 µM on Bcl-2-like protein 1 and 3.9 µM in assay [2].

The molecule `O=C(O)c1ccc(COc2cccc(/C=C3\SC(=S)N(c4ccccc4)C3=O)c2)cc1` displayed a Ki in assay [1] of over 10 µM.

For `O=C(O)c1ccc(/C=C2\SC(=S)N(c3ccccc3)C2=O)cc1`, in assay [3], the inhibition (as a rule, the change of the read-out against control, counted positive when it falls) stood at 18%. In assay [1], this molecule gave a Ki of over 10 µM.

The molecule `O=C(Nc1ccc(O)c(C(=O)O)c1)c1ccc(/C=C2\SC(=S)N(c3ccc([N+](=O)[O-])cc3)C2=O)cc1` had a Ki in assay [1] of over 10 µM.

As to `O=C(O)c1ccc(COc2ccc(/C=C3\SC(=S)N(c4c(F)cccc4F)C3=O)cc2)cc1`, in assay [1], the inhibition constant (Ki) is over 10 µM.

`O=C(O)c1ccc([N+](=O)[O-])c(COc2ccc(/C=C3\SC(=S)N(c4ccccc4)C3=O)cc2)c1` registered a Ki in assay [1] of 9 µM.

Turning to `O=C(O)c1ccc(COc2ccc(/C=C3\SC(=S)N(c4cccc([N+](=O)[O-])c4)C3=O)cc2)cc1`, the affinity in assay [1] corresponds to a Ki of 9.6 µM.

On to `O=C(O)c1ccc(COc2ccc(/C=C3\SC(=S)N(c4ccc(F)cc4)C3=O)cc2)cc1`, for which the Ki in assay [1] is over 10 µM.

Turning to `Cc1ccccc1N1C(=O)/C(=C/c2cccc(OCc3ccc(C(=O)O)cc3)c2)SC1=S`, the values for the Ki (in assay [1]; at Bcl-2-like protein 1; in assay [2]) were 3.1 µM, over 10 µM and 3.2 µM, respectively.

In the case of `O=C(O)c1ccc(COc2ccc(/C=C3\SC(=S)N(Cc4ccc(F)cc4)C3=O)cc2)cc1`, the Ki in assay [1] is over 10 µM.

Take `O=C(O)c1ccc(COc2ccc(/C=C3\SC(=S)N(c4cccc(C(F)(F)F)c4)C3=O)cc2)cc1`: the Ki in assay [1] is over 10 µM.

Take `Cc1cccc(N2C(=O)/C(=C/c3ccc(OCc4ccc(C(=O)O)cc4)cc3)SC2=S)c1`: the inhibitory constant (Ki) in assay [1] was over 10 µM.

In assay [1], `O=C(COc1ccc(/C=C2\SC(=S)N(c3ccccc3)C2=O)cc1)Nc1ccc(C(=O)O)cc1` had a Ki of over 10 µM.

For the molecule `O=C(O)c1ccc(COc2ccc(/C=C3\SC(=S)N(c4ccccc4)C3=O)cc2)cc1`, the Ki in assay [1] is over 10 µM.

As for `O=C(O)c1ccc(COc2ccc(/C=C3\SC(=S)N(c4ccc(I)cc4)C3=O)cc2)cc1`, the Ki was 4.3 µM in assay [1], over 10 µM on Bcl-2-like protein 1 and 1.6 µM in assay [2].

In assay [1], `O=C(O)c1ccc([N+](=O)[O-])c(COc2ccc(/C=C3\SC(=S)N(c4ccc([N+](=O)[O-])cc4)C3=O)cc2)c1` came in with an inhibitory constant (Ki) of 3.1 µM.

Regarding `O=C(O)c1ccc(COc2ccc(/C=C3\SC(=S)N(c4ccc(Br)cc4)C3=O)cc2)cc1`, the figures for the Ki (in assay [1]; at Bcl-2-like protein 1; in assay [2]) were 0.61 µM, over 10 µM and 0.7 µM, respectively. Further, the IC50 is 19.8 µM with MDA-MB-231, 43.8 µM in the assay on K562 and 18.9 µM with PC-3.

`Cc1ccc(N2C(=O)/C(=C/c3ccc(OCC(=O)Nc4ccc(C(=O)O)cc4)cc3)SC2=S)cc1`: the Ki in assay [1] was over 10 µM.

`CC(=O)c1ccc(N2C(=O)/C(=C/c3ccc(OCc4ccc(C(=O)O)cc4)cc3)SC2=S)cc1` gave a Ki in assay [1] of over 10 µM.

As to `O=C(O)c1ccc(COc2cccc(/C=C3\SC(=S)N(c4ccc([N+](=O)[O-])cc4)C3=O)c2)cc1`, the inhibition constant (Ki) in assay [1] was over 10 µM.

The molecule `Cc1cccc(C)c1N1C(=O)/C(=C/c2ccc(OCC(=O)Nc3ccc(C(=O)O)cc3)cc2)SC1=S` registered a Ki in assay [1] of 7.6 µM.
